Assay results as given in BindingDB's records for PubMed 40053382 (Sapienza University of Rome).

Tests used:
[1] = Inhibition of HIV-1 integrase strand transfer activity
[2] = Inhibition of HIV-1 Reverse transcriptase K103N mutant
[3] = Inhibition of wild type HIV-1 LAI reverse transcriptase
[4] = Inhibition of HIV-1 Reverse transcriptase K103N/Y181C double mutant
[5] = Inhibition of HIV-1 Reverse transcriptase L100I/K103N double mutant

| Compound | IC50 [1] | IC50 [2] | IC50 [3] | IC50 [4] | IC50 [5] |
| --- | --- | --- | --- | --- | --- |
| CCc1nc(SC)n(COCc2ccccc2)c1CC1CCCCC1 | 400 nM |  |  |  |  |
| CCOCn1c(SC)nc(C(C)C)c1CC1CCCCC1 | 250 nM |  |  |  |  |
| CSc1nc(C(C)C)c(CC2CCCCC2)n1COCc1ccccc1 | 260 nM |  |  |  |  |
| CSc1nc(C(C)C)c(Cc2ccccc2)n1COCc1ccccc1 | 3300 nM |  |  |  |  |
| Cc1cc(C#N)cc(C)c1Nc1ncnc(Nc2ccc(C#N)cc2)n1 |  | 0.4 nM | 0.4 nM | 32 nM |  |
| Cc1cc(C#N)cc(C)c1Oc1ncnc(Nc2ccc(C#N)cc2)n1 |  | 1.4 nM | 1.4 nM | 25 nM | 49 nM |
| Cc1cc(/C=C/C#N)cc(C)c1Nc1ncnc(Nc2ccc(C#N)cc2)n1 |  | 0.3 nM | 0.4 nM | 1 nM |  |
